Assay results reported in paper PMC6001834 (Drug Design, Development and Therapy, 2018).

System: AMI rats
Assay: In vivo effects of LNCs on infarct size
Set-up: species or system Sprague-Dawley rats
Conditions: intravenous injection, n=8, AMI group 58%

## Nc1ncnc2c1ncn2[C@@H]1O[C@H](CO)[C@@H](O)[C@H]1O [free Ade, Adenosine]
  infarct size (percentage of whole size of the left ventricle): 47%
